According to US6391863B1, “Use of carbohydrates for promoting skin desquamation” (L'Oreal, priority 1995, dated 2002):

Tested on: Banderia simplicifolia isolectin B4
Test: Inhibition of lectin-induced haemagglutination (model of corneocyte cohesion)
Format: cell-based
Settings: rabbit erythrocytes; lectin at twice its minimum haemagglutinating concentration; carbohydrate starting solution 0.1M, successive dilutions; 30 min contact at ambient temperature
Experimental: A test to measure the efficacy of the carbohydrates was carried out in vitro. […] The principle of the test lies in the fact that the lectin causes agglutination of the erythrocytes. The products to be tested, which are prepared at various dilutions, are added to the lectin solutions. The minimum concentration of product allowing the inhibition of haemagglutination caused by the lectin is measured. […] To carry out the tests, rabbit erythrocytes marketed by the company Biomérieux under the reference 72291 are employed. These erythrocytes are used in 50% suspension in water. The lectin used is Banderia simplicifolia isolectin B4, marketed by the company SYGMA. All the solutions are diluted in phosphate buffer containing calcium and magnesium. The lectin is dissolved in the phosphate buffer at a concentration of 1 mg/ml. 25 μl of phosphate buffer are distributed in all the wells of the microtitre plates. 25 μl of the lectin to be tested are added to the second well. After homogenization, 25 μl from this well are transferred into the following well and so on to obtain successive dilutions. The erythrocytes are diluted to 1/10^e (fresh solution) . 5 μl of the suspension and 5 μl of the contents of a well are placed on a plate. After mixing by rotation, it is observed whether or not there is haemagglutination. The latter develops in 5 min at the maximum. The minimum quantity of lectin is thus measured, which allows a clear erythrocyte haemagglutination to be obtained. After having measured the minimum quantity of lectin which allows a clear erythrocyte haemagglutination to be obtained, it is chosen to work at twice the concentration. 25 μl of phosphate buffer are placed in microtitre plates to carry out a negative control. In the other wells are distributed 25 μl of lectin at the determined concentration. In the second well are added 25 μl of phosphate buffer to obtain a positive control. In the third well are placed 25 μl of the carbohydrate derivative to be tested in solution at a concentration of 0.1M. After homogenization, 25 μl from this well are taken and placed in the following well and so on so as to obtain successive dilutions. After having left the lectin and the carbohydrate derivative in contact for 30 min at ambient temperature, 5 μl are placed on a plate and are mixed with 5 μl of erythrocyte suspension. It is observed whether or not there is haemagglutination after agitation by rotation. The lowest carbohydrate dilution allowing inhibition of haemagglutination to be observed is measured. The result is given as a fraction (corresponding to the dilution) of the initial concentration (0.1M).

**Q.** Which “lowest carbohydrate dilution allowing inhibition of haemagglutination to be observed, given as a fraction (corresponding to the dilution) of the initial concentration (0.1M)” value does the source give for CCCCCCCC(=O)OC[C@H]1O[C@H](O[C@H]2[C@H](O)[C@@H](O)[C@H](O)O[C@@H]2CO)[C@H](O)[C@@H](O)[C@@H]1O [6′-O-octanoyl-D-maltose, 6′-O-octanoyl-β-D-maltose] here?
**A.** The value was “¼”.

**Q.** CC(=O)N[C@H]1C(O)O[C@H](CO)[C@@H](O)[C@@H]1O (stereo partly drawn) [N-acetyl-D-glucosamine, reference compound] was tested. Which “lowest carbohydrate dilution allowing inhibition of haemagglutination to be observed, given as a fraction (corresponding to the dilution) of the initial concentration (0.1M)” value did it give?
**A.** The value was “no inhibition observed”.

**Q.** With CCCCCCCCOC(=O)N(C)C[C@H](O)[C@@H](O)[C@H](O)[C@H](O)CO [N-octyloxycarbonyl-N-methyl-D-glucamine] as the compound, how does the “lowest carbohydrate dilution allowing inhibition of haemagglutination to be observed, given as a fraction (corresponding to the dilution) of the initial concentration (0.1M)” value read?
**A.** The value was 1/64.

**Q.** How did the “lowest carbohydrate dilution allowing inhibition of haemagglutination to be observed, given as a fraction (corresponding to the dilution) of the initial concentration (0.1M)” value turn out when “N-2-ethylhexyloxy-carbonyl-N-methyl-D-glucamine” was run?
**A.** Its value is 1/16.
